Test results: US9980943B2, “Methods of treating muscular dystrophy” (BOARD OF REGENTS OF THE NEVADA SYSTEM OF HIGHER EDUCATION, …, priority 2013, dated 2018)

Assays:
Format in all cases: cell-based, mouse
[1] = system: α7 integrin (LacZ reporter in α7+/LacZ myotubes); assay: Myotube α7 integrin FDG assay (Burkin assay in myotubes, 96-well); settings: myotubes
[2] = system: β-galactosidase in CMV-LacZ C2C12 myotubes; assay: CMV-LacZ secondary screen in C2C12 myotubes (β-Gal stabilizing assay); settings: C2C12 CMV-LacZ myotubes, fold relative to DMSO
Outline: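 β-gal stabilization was measured in C2C12 myoblasts or myotubes stably transfected with a CMV-driven LacZ construct, using the FDG β-gal assay. Compounds were tested in dose-response at 0.5, 1, 5, 10, 20 and 40 μM, with two replicates per point.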

[3] = system: β-galactosidase in CMV-LacZ C2C12 myoblasts; assay: CMV-LacZ secondary screen in C2C12 myoblasts (β-Gal stabilizing assay); settings: CMV-LacZ C2C12 myoblasts
Outline: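 CMV-LacZ C2C12 line (clonal, FDG-screened); myoblasts/myotubes dosed 0.5–40 μM (0.5, 1, 5, 10, 20, 40 μM); n=2 per point; β-gal stabilization read-out.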

[4] = system: α7 integrin (LacZ reporter in α7βgal+/− myoblasts); assay: Myoblast α7+/LacZ integrin FDG assay (Burkin assay in myoblasts, 96-well); settings: α7+/LacZ myoblasts, 96-well

Structure (SMILES) | Burkin Assay in Myotubes, α7 integrin LacZ reporter signal relative to DMSO ([1]; 0.5 uM) | Burkin Assay in Myotubes, α7 integrin LacZ reporter signal relative to DMSO ([1]; 1 uM) | Burkin Assay in Myotubes, α7 integrin LacZ reporter signal relative to DMSO ([1]; 5 uM) | Burkin Assay in Myotubes, α7 integrin LacZ reporter signal relative to DMSO ([1]; 10 uM) | Burkin Assay in Myotubes, α7 integrin LacZ reporter signal relative to DMSO ([1]; 20 uM) | Burkin Assay in Myotubes, α7 integrin LacZ reporter signal relative to DMSO ([1]; 40 uM) | CMV-LACZ in Myotubes, signal relative to DMSO ([2]; 0.5 uM) | CMV-LACZ in Myotubes, signal relative to DMSO ([2]; 1 uM) | CMV-LACZ in Myotubes, signal relative to DMSO ([2]; 5 uM) | CMV-LACZ in Myotubes, signal relative to DMSO ([2]; 10 uM) | CMV-LACZ in Myotubes, signal relative to DMSO ([2]; 20 uM) | CMV-LACZ in Myotubes, signal relative to DMSO ([2]; 40 uM) | CMV-LACZ in Myoblasts (β-galactosidase activity relative to DMSO) ([3]; 0.5 uM) | CMV-LACZ in Myoblasts (β-galactosidase activity relative to DMSO) ([3]; 1 uM) | CMV-LACZ in Myoblasts (β-galactosidase activity relative to DMSO) ([3]; 5 uM) | CMV-LACZ in Myoblasts (β-galactosidase activity relative to DMSO) ([3]; 10 uM) | CMV-LACZ in Myoblasts (β-galactosidase activity relative to DMSO) ([3]; 20 uM) | CMV-LACZ in Myoblasts (β-galactosidase activity relative to DMSO) ([3]; 40 uM) | Burkin Assay in Myoblasts, signal relative to DMSO ([4]; 0.5 uM) | Burkin Assay in Myoblasts, signal relative to DMSO ([4]; 1 uM) | other results
C/C(=N\NC(=O)c1cc(C)oc1C)c1ccc2ccccc2c1 [MLS000912258-01] | 0.9264 | 0.8571 | 1.144 | 0.9631 | 0.877 | 0.7193 | 0.9743 | 0.9162 | 1.1251 | 1.2253 | 1.0760 | 1.0350 | 1.1073 | 1.1693 | 0.9071 | 1.0171 | 1.1074 | 0.8621 | 0.8436 | 0.9089 | Burkin Assay in Myoblasts, signal relative to DMSO ([4]; 5 uM): 1.2722; Burkin Assay in Myoblasts, signal relative to DMSO ([4]; 10 uM): 0.8425; Burkin Assay in Myoblasts, signal relative to DMSO ([4]; 20 uM): 0.6351; Burkin Assay in Myoblasts, signal relative to DMSO ([4]; 40 uM): 0.3725
CC(=O)Nc1ccc(NC(=O)C/C(C)=N/NC(=O)COc2cc(C)c(Br)cc2Br)cc1 [MLS000912562-01] | 0.898 | 0.8582 | 0.929 | 0.8748 | 0.8872 | 0.7024 | 1.0905 | 0.8924 | 0.9602 | 1.1674 | 1.2090 | 1.2780 | 0.8680 | 0.9150 | 0.7103 | 0.6246 | 1.0302 | 0.8747 | 0.7697 | 0.929 | Burkin Assay in Myoblasts, signal relative to DMSO ([4]; 5 uM): 1.039; Burkin Assay in Myoblasts, signal relative to DMSO ([4]; 10 uM): 0.9253; Burkin Assay in Myoblasts, signal relative to DMSO ([4]; 20 uM): 0.6911; Burkin Assay in Myoblasts, signal relative to DMSO ([4]; 40 uM): 0.5552
COc1ccc(CCNC(=O)Cn2nnc(C(=O)Nc3ccc(Br)cc3)c2N)cc1OC [MLS000912699-01] | 1.175 | 0.9376 | 0.9252 | 0.939 | 0.5217 | 0.6518 | 0.8089 | 0.9859 | 0.9419 | 1.1310 | 0.9235 | 0.5365 | 0.7147 | 0.8744 | 0.9111 | 1.0462 | 0.8826 | 0.5204 | 1.115 | 1.038 | Burkin Assay in Myoblasts, signal relative to DMSO ([4]; 5 uM): 0.9322; Burkin Assay in Myoblasts, signal relative to DMSO ([4]; 10 uM): 0.9298; Burkin Assay in Myoblasts, signal relative to DMSO ([4]; 20 uM): 0.6724; Burkin Assay in Myoblasts, signal relative to DMSO ([4]; 40 uM): 0.4392
CCOc1ccccc1NC(=O)c1cccc2c1C(=O)N(C1CCCCC1)C2 [MLS000912726-01] | 1.066 | 0.8889 | 0.8818 | 0.886 | 0.8231 | 0.8237 | 0.8527 | 0.9264 | 0.9111 | 1.1041 | 1.2060 | 1.0150 | 1.1004 | 0.9692 | 1.0182 | 1.0325 | 1.0257 | 1.0643 | 1.279 | 1.177 | Burkin Assay in Myoblasts, signal relative to DMSO ([4]; 5 uM): 0.9838; Burkin Assay in Myoblasts, signal relative to DMSO ([4]; 10 uM): 1.02; Burkin Assay in Myoblasts, signal relative to DMSO ([4]; 20 uM): 1.1258; Burkin Assay in Myoblasts, signal relative to DMSO ([4]; 40 uM): 1.022
COc1ccc(CNC(=O)C2CCCN(S(=O)(=O)c3c(C)noc3/C=C/N(C)C)C2)cc1 (stereo not drawn) [MLS000925023-01] | 1.16 | 1.24 | 0.8969 | 0.8784 | 0.8004 | 0.7318 | 0.7505 | 1.1333 | 1.1638 | 0.8859 | 1.1565 | 1.1106 | 1.0703 | 0.9629 | 0.9762 | 0.8397 | 0.5504 | 0.3278 | 0.996 | 1.035 | Burkin Assay in Myoblasts, signal relative to DMSO ([4]; 5 uM): 0.9523; Burkin Assay in Myoblasts, signal relative to DMSO ([4]; 10 uM): 0.7957; Burkin Assay in Myoblasts, signal relative to DMSO ([4]; 20 uM): 0.7765; Burkin Assay in Myoblasts, signal relative to DMSO ([4]; 40 uM): 0.4179
O=S(=O)(NC(=NC1CCCCC1)c1ccccc1F)c1ccccc1 [MLS000947910-01] | 1.134 | 1.101 | 1 | 1.035 | 0.9628 | 0.9515 | 1.0333 | 0.8348 | 1.2332 | 0.8930 | 1.0165 | 1.0082 | 1.0094 | 0.9250 | 0.9452 | 1.0379 | 1.0870 | 1.0500 | 1.024 | 1.188 | Burkin Assay in Myoblasts, signal relative to DMSO ([4]; 5 uM): 1.033; Burkin Assay in Myoblasts, signal relative to DMSO ([4]; 10 uM): 1.0429; Burkin Assay in Myoblasts, signal relative to DMSO ([4]; 20 uM): 1.047; Burkin Assay in Myoblasts, signal relative to DMSO ([4]; 40 uM): 1.018
